Measured values published in article PMC9694544, “Conteltinib (CT-707) in patients with advanced ALK-positive non-small cell lung cancer: a multicenter, open-label, first-in-human phase 1 study” (BMC Medicine, 2022).
“And” between values parts separate entries of the source, which are not always exact repeats. Equal entries are not always repeated.

Test system: ALK-positive NSCLC
Test: Phase 1 efficacy assessment (RECIST 1.1, investigator-assessed);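 also: tumours imaged by CT or MRI at baseline, after cycle 1, then every 8 weeks to cycle 29 and every 12 weeks until progression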
[1] = ALK TKI-naïve, 300 mg BID (n=6)
[2] = ALK TKI-naïve, 600 mg QD (n=12)
[3] = All patients, 300 mg BID (n=11)
[4] = Received crizotinib previously, 50 mg QD (n=1)
[5] = Received crizotinib previously, 200 mg QD (n=1)
[6] = Received crizotinib previously, 300 mg BID (n=5)
[7] = Received crizotinib previously, 300 mg QD (n=1)
[8] = Received crizotinib previously, 600 mg QD (n=6)
[9] = Received crizotinib previously, 800 mg QD (n=1)
[10] = waterfall plot, evaluable patients (n=60)

With `COc1cc(N2CCC(N3CCN(C)CC3)CC2)ccc1Nc1nc2c(c(Nc3ccccc3S(=O)(=O)NC(C)C)n1)CCN2` [Conteltinib] the CR rate (39 ALK TKI-naïve patients) was 2.6%, the PR rate (39 ALK TKI-naïve patients) was 61.5% and the “number of patients with objective response” value (39 ALK TKI-naïve patients) was 25 patients. The “patients with tumor regression” value (50/60 patients) was 83.3%, the “DCR (95% CI)” value (ALK TKI-naïve, 50 mg QD (n=1)) was 100.0% (2.5–100.0) and the “ORR (95% CI)” value (ALK TKI-naïve, 50 mg QD (n=1)) was 100.0% (2.5–100.0). For the same compound, the “DoR, Median (95% CI)” value (ALK TKI-naïve, 100 mg QD (n=6)) was 11.1 (5.61–15.0) months, the “PFS, Median (95% CI)” value (ALK TKI-naïve, 100 mg QD (n=6)) was 11.3 (2.75–15.9) months and the “DoR, Median (95% CI)” value (ALK TKI-naïve, 200 mg QD (n=2)) was 5.51 (NE–NE) months. The “ORR (95% CI)” value (ALK TKI-naïve, 200 mg QD (n=2)) was 50.0% (1.3–98.7), the “PFS, Median (95% CI)” value (ALK TKI-naïve, 200 mg QD (n=2)) was 5.89 (3.25–8.54) months and the “DoR, Median (95% CI)” value [1] was 10.6 (1.80–10.6) months. For the same compound, the “PFS, Median (95% CI)” value [1] was 17.8 (3.05–19.6) months, the “DCR (95% CI)” value (ALK TKI-naïve, 300 mg QD (n=2)) was 100.0% (15.8–100.0) and the “DoR, Median (95% CI)” value (ALK TKI-naïve, 300 mg QD (n=2)) was 17.4 (9.06–25.8) months. The “ORR (95% CI)” value (ALK TKI-naïve, 300 mg QD (n=2)) was 100.0% (15.8–100.0), the “PFS, Median (95% CI)” value (ALK TKI-naïve, 300 mg QD (n=2)) was 19.5 (10.2–28.8) months and the “DoR, Median (95% CI)” value (ALK TKI-naïve, 450 mg QD (n=8)) was “NE (3.74–NE)”. For the same compound, the “PFS, Median (95% CI)” value (ALK TKI-naïve, 450 mg QD (n=8)) was “NE (4.63–NE)”, the “DoR, Median (95% CI)” value [2] was 16.5 (1.80–32.8) months and the “PFS, Median (95% CI)” value [2] was 19.3 (1.05–32.4) months. For the same compound, the “DCR (95% CI)” value (ALK TKI-naïve, 800 mg QD (n=2)) was 100.0% (15.8–100.0), the “DoR, Median (95% CI)” value (ALK TKI-naïve, 800 mg QD (n=2)) was 28.0 (NE–NE) months and the “ORR (95% CI)” value (ALK TKI-naïve, 800 mg QD (n=2)) was 50.0% (1.3–98.7). The “PFS, Median (95% CI)” value (ALK TKI-naïve, 800 mg QD (n=2)) was 19.8 (10.3–29.2) months, the “DoR, Median (95% CI)” value (ALK TKI-naïve, Total (n=39)) was 15.0 (9.06–25.8) months and the “PFS, Median (95% CI)” value (ALK TKI-naïve, Total (n=39)) was 15.9 (9.26–23.3) months. For the same compound, the “DCR (95% CI)” value (All patients, 50 mg QD (n=2)) was 50.0% (1.3–98.7), the “ORR (95% CI)” value (All patients, 50 mg QD (n=2)) was 50.0% (1.3–98.7) and the “PFS, Median (95% CI)” value (All patients, 50 mg QD (n=2)) was “NE (1.21–NE)”. For the same compound, the “DoR, Median (95% CI)” value (All patients, 100 mg QD (n=7)) was 11.1 (5.61–15.0) months, the “PFS, Median (95% CI)” value (All patients, 100 mg QD (n=7)) was 8.57 (0.95–15.9) months and the “DCR (95% CI)” value (All patients, 200 mg QD (n=3)) was 33.3% (0.8–90.6). For the same compound, the “DoR, Median (95% CI)” value (All patients, 200 mg QD (n=3)) was 5.51 (NE–NE) months, the “ORR (95% CI)” value (All patients, 200 mg QD (n=3)) was 33.3% (0.8–90.6) and the “PFS, Median (95% CI)” value (All patients, 200 mg QD (n=3)) was 3.25 (1.34–8.54) months. The “DoR, Median (95% CI)” value [3] was 5.58 (1.80–10.6) months, the “PFS, Median (95% CI)” value [3] was 7.68 (3.05–17.8) months and the “DCR (95% CI)” value (All patients, 300 mg QD (n=3)) was 100.0% (29.2–100.0). The “DoR, Median (95% CI)” value (All patients, 300 mg QD (n=3)) was 17.4 (9.06–25.8) months, the “ORR (95% CI)” value (All patients, 300 mg QD (n=3)) was 66.7% (9.4–99.2) and the “PFS, Median (95% CI)” value (All patients, 300 mg QD (n=3)) was 10.2 (4.92–28.8) months. For the same compound, the “DoR, Median (95% CI)” value (All patients, 450 mg QD (n=13)) was “NE (3.74–NE)”, the “PFS, Median (95% CI)” value (All patients, 450 mg QD (n=13)) was 26.9 (4.63–NE) months and the “DoR, Median (95% CI)” value (All patients, 600 mg QD (n=18)) was 15.6 (1.80–22.2) months. The “PFS, Median (95% CI)” value (All patients, 600 mg QD (n=18)) was 13.2 (4.69–23.0) months, the “DCR (95% CI)” value (All patients, 800 mg QD (n=3)) was 100.0% (29.2–100.0) and the “DoR, Median (95% CI)” value (All patients, 800 mg QD (n=3)) was 17.3 (6.60–28.0) months. The “ORR (95% CI)” value (All patients, 800 mg QD (n=3)) was 66.7% (9.4–99.2), the “PFS, Median (95% CI)” value (All patients, 800 mg QD (n=3)) was 10.3 (7.72–29.2) months and the “DoR, Median (95% CI)” value (All patients, Total (n=60)) was 13.3 (6.60–22.2) months. For the same compound, the “PFS, Median (95% CI)” value (All patients, Total (n=60)) was 9.26 (6.73–15.7) months, the “patients achieving CR” value (FAS, 60 patients) was 1.7% and the “patients achieving PR” value (FAS, 60 patients) was 51.7%. The “patients attaining SD” value (FAS, 60 patients) was 26.7%, the “patients experiencing PD” value (FAS, 60 patients) was 16.7% and the “DCR (95% CI)” value [4] was 0.0% (0.0–97.5). The “ORR (95% CI)” value [4] was 0.0% (0.0–97.5), the “PFS, Median (95% CI)” value [4] was 1.21 (NE–NE) months and the “PFS, Median (95% CI)” value (Received crizotinib previously, 100 mg QD (n=1)) was 0.95 months and 0.95 (NE–NE) months. For the same compound, the “DCR (95% CI)” value [5] was 0.0% (0.0–97.5), the “ORR (95% CI)” value [5] was 0.0% (0.0–97.5) and the “PFS, Median (95% CI)” value [5] was 1.34 (NE–NE) months. For the same compound, the “DoR, Median (95% CI)” value [6] was 5.58 (4.63–7.39) months, the “PFS, Median (95% CI)” value [6] was 7.09 (4.73–8.54) months and the “DCR (95% CI)” value [7] was 100.0% (54.1–100.0). For the same compound, the “ORR (95% CI)” value [7] was 0.0% (0.0–97.5), the “PFS, Median (95% CI)” value [7] was 4.92 (NE–NE) months and the “PFS, Median (95% CI)” value (Received crizotinib previously, 450 mg QD (n=5)) was 8.34 (3.02–26.9) months. The “DoR, Median (95% CI)” value [8] was 13.3 (3.77–16.5) months, the “PFS, Median (95% CI)” value [8] was 9.37 (4.69–17.7) months and the “DCR (95% CI)” value [9] was 100.0% (2.5–100.0). For the same compound, the “DoR, Median (95% CI)” value [9] was 6.60 (NE–NE) months, the “ORR (95% CI)” value [9] was 100.0% (2.5–100.0) and the “PFS, Median (95% CI)” value [9] was 7.72 (NE–NE) months. The “tumor size changes relative to baseline” value (across all patients (n=60)) was −100 to 74%, the “number of patients with CR” value [10] was “One” and the “number of patients with PD” value [10] was 10 patients. The “number of patients with PR” value [10] was 31 patients.
